{"source": "ChEMBL document CHEMBL5625277", "about": "“Systematical mutational analysis of teriparatide on anti-osteoporosis activity by alanine scanning” (Bioorg Med Chem Lett, 2024)", "data": [{"assay": "Cytotoxicity in pre-osteoblasts (unknown origin) assessed as cell death upto 5 uM by CCK8 assay", "type": "toxicity, cell-based", "conditions": "pre-osteoblast", "values": [{"smiles": "CC[C@H](C)[C@H](NC(=O)[C@H](CCC(=O)O)NC(=O)[C@H](CO)NC(=O)[C@@H](NC(=O)[C@H](CO)NC(C)=O)C(C)C)C(=O)N[C@@H](CCC(N)=O)C(=O)N[C@@H](CC(C)C)C(=O)N[C@@H](CCSC)C(=O)N[C@@H](Cc1cnc[nH]1)C(=O)N[C@@H](CC(N)=O)C(=O)N[C@@H](CC(C)C)C(=O)NCC(=O)N[C@@H](CCCCN)C(=O)N[C@@H](Cc1cnc[nH]1)C(=O)N[C@@H](CC(C)C)C(=O)N[C@@H](CC(N)=O)C(=O)N[C@@H](CO)C(=O)N[C@@H](CCSC)C(=O)N[C@@H](CCC(=O)O)C(=O)N[C@@H](CCCNC(=N)N)C(=O)N[C@H](C(=O)N[C@@H](CCC(=O)O)C(=O)N[C@@H](C)C(=O)N[C@@H](CC(C)C)C(=O)N[C@@H](CCCNC(=N)N)C(=O)N[C@@H](CCCCN)C(=O)N[C@@H](CCCCN)C(=O)N[C@@H](CC(C)C)C(=O)N[C@@H](CCC(N)=O)C(=O)N[C@@H](CC(=O)O)C(=O)N[C@H](C(=O)N[C@@H](Cc1cnc[nH]1)C(=O)N[C@@H](CC(N)=O)C(=O)N[C@@H](Cc1ccccc1)C(N)=O)C(C)C)C(C)C", "Activity": "Non-Toxic"}, {"smiles": "CC[C@H](C)[C@H](NC(=O)[C@H](C)NC(=O)[C@H](CO)NC(=O)[C@@H](NC(=O)[C@H](CO)NC(C)=O)C(C)C)C(=O)N[C@@H](CCC(N)=O)C(=O)N[C@@H](CC(C)C)C(=O)N[C@@H](CCSC)C(=O)N[C@@H](Cc1cnc[nH]1)C(=O)N[C@@H](CC(N)=O)C(=O)N[C@@H](CC(C)C)C(=O)NCC(=O)N[C@@H](CCCCN)C(=O)N[C@@H](Cc1cnc[nH]1)C(=O)N[C@@H](CC(C)C)C(=O)N[C@@H](CC(N)=O)C(=O)N[C@@H](CO)C(=O)N[C@@H](CCSC)C(=O)N[C@@H](CCC(=O)O)C(=O)N[C@@H](CCCNC(=N)N)C(=O)N[C@H](C(=O)N[C@@H](CCC(=O)O)C(=O)N[C@@H](Cc1c[nH]c2ccccc12)C(=O)N[C@@H](CC(C)C)C(=O)N[C@@H](CCCNC(=N)N)C(=O)N[C@@H](CCCCN)C(=O)N[C@@H](CCCCN)C(=O)N[C@@H](CC(C)C)C(=O)N[C@@H](CCC(N)=O)C(=O)N[C@@H](CC(=O)O)C(=O)N[C@H](C(=O)N[C@@H](Cc1cnc[nH]1)C(=O)N[C@@H](CC(N)=O)C(=O)N[C@@H](Cc1ccccc1)C(N)=O)C(C)C)C(C)C", "Activity": "Non-Toxic"}, {"smiles": "CC[C@H](C)[C@H](NC(=O)[C@H](CCC(=O)O)NC(=O)[C@H](CO)NC(=O)[C@@H](NC(=O)[C@H](CO)NC(C)=O)C(C)C)C(=O)N[C@@H](CCC(N)=O)C(=O)N[C@@H](CC(C)C)C(=O)N[C@@H](CCSC)C(=O)N[C@@H](Cc1cnc[nH]1)C(=O)N[C@@H](CC(N)=O)C(=O)N[C@@H](CC(C)C)C(=O)NCC(=O)N[C@@H](CCCCN)C(=O)N[C@@H](Cc1cnc[nH]1)C(=O)N[C@@H](CC(C)C)C(=O)N[C@@H](CC(N)=O)C(=O)N[C@@H](CO)C(=O)N[C@@H](CCSC)C(=O)N[C@@H](CCC(=O)O)C(=O)N[C@@H](CCCNC(=N)N)C(=O)N[C@H](C(=O)N[C@@H](CCC(=O)O)C(=O)N[C@@H](Cc1c[nH]c2ccccc12)C(=O)N[C@@H](CC(C)C)C(=O)N[C@@H](CCCNC(=N)N)C(=O)N[C@@H](CCCCN)C(=O)N[C@@H](CCCCN)C(=O)N[C@@H](CC(C)C)C(=O)N[C@@H](C)C(=O)N[C@@H](CC(=O)O)C(=O)N[C@H](C(=O)N[C@@H](Cc1cnc[nH]1)C(=O)N[C@@H](CC(N)=O)C(=O)N[C@@H](Cc1ccccc1)C(N)=O)C(C)C)C(C)C", "Activity": "Non-Toxic"}, {"smiles": "CC[C@H](C)[C@H](NC(=O)[C@H](CCC(=O)O)NC(=O)[C@H](CO)NC(=O)[C@@H](NC(=O)[C@H](CO)NC(C)=O)C(C)C)C(=O)N[C@@H](CCC(N)=O)C(=O)N[C@@H](CC(C)C)C(=O)N[C@@H](CCSC)C(=O)N[C@@H](Cc1cnc[nH]1)C(=O)N[C@@H](CC(N)=O)C(=O)N[C@@H](CC(C)C)C(=O)NCC(=O)N[C@@H](CCCCN)C(=O)N[C@@H](Cc1cnc[nH]1)C(=O)N[C@@H](CC(C)C)C(=O)N[C@@H](CC(N)=O)C(=O)N[C@@H](CO)C(=O)N[C@@H](CCSC)C(=O)N[C@@H](CCC(=O)O)C(=O)N[C@@H](CCCNC(=N)N)C(=O)N[C@H](C(=O)N[C@@H](CCC(=O)O)C(=O)N[C@@H](Cc1c[nH]c2ccccc12)C(=O)N[C@@H](CC(C)C)C(=O)N[C@@H](CCCNC(=N)N)C(=O)N[C@@H](CCCCN)C(=O)N[C@@H](C)C(=O)N[C@@H](CC(C)C)C(=O)N[C@@H](CCC(N)=O)C(=O)N[C@@H](CC(=O)O)C(=O)N[C@H](C(=O)N[C@@H](Cc1cnc[nH]1)C(=O)N[C@@H](CC(N)=O)C(=O)N[C@@H](Cc1ccccc1)C(N)=O)C(C)C)C(C)C", "Activity": "Non-Toxic"}, {"smiles": "CC[C@H](C)[C@H](NC(=O)[C@H](CCC(=O)O)NC(=O)[C@H](CO)NC(=O)[C@@H](NC(=O)[C@H](CO)NC(C)=O)C(C)C)C(=O)N[C@@H](CCC(N)=O)C(=O)N[C@@H](CC(C)C)C(=O)N[C@@H](CCSC)C(=O)N[C@@H](Cc1cnc[nH]1)C(=O)N[C@@H](C)C(=O)N[C@@H](CC(C)C)C(=O)NCC(=O)N[C@@H](CCCCN)C(=O)N[C@@H](Cc1cnc[nH]1)C(=O)N[C@@H](CC(C)C)C(=O)N[C@@H](CC(N)=O)C(=O)N[C@@H](CO)C(=O)N[C@@H](CCSC)C(=O)N[C@@H](CCC(=O)O)C(=O)N[C@@H](CCCNC(=N)N)C(=O)N[C@H](C(=O)N[C@@H](CCC(=O)O)C(=O)N[C@@H](Cc1c[nH]c2ccccc12)C(=O)N[C@@H](CC(C)C)C(=O)N[C@@H](CCCNC(=N)N)C(=O)N[C@@H](CCCCN)C(=O)N[C@@H](CCCCN)C(=O)N[C@@H](CC(C)C)C(=O)N[C@@H](CCC(N)=O)C(=O)N[C@@H](CC(=O)O)C(=O)N[C@H](C(=O)N[C@@H](Cc1cnc[nH]1)C(=O)N[C@@H](CC(N)=O)C(=O)N[C@@H](Cc1ccccc1)C(N)=O)C(C)C)C(C)C", "Activity": "Non-Toxic"}, {"smiles": "CC[C@H](C)[C@H](NC(=O)[C@H](CCC(=O)O)NC(=O)[C@H](CO)NC(=O)[C@@H](NC(=O)[C@H](CO)NC(C)=O)C(C)C)C(=O)N[C@@H](CCC(N)=O)C(=O)N[C@@H](CC(C)C)C(=O)N[C@@H](CCSC)C(=O)N[C@@H](Cc1cnc[nH]1)C(=O)N[C@@H](CC(N)=O)C(=O)N[C@@H](CC(C)C)C(=O)NCC(=O)N[C@@H](CCCCN)C(=O)N[C@@H](Cc1cnc[nH]1)C(=O)N[C@@H](CC(C)C)C(=O)N[C@@H](CC(N)=O)C(=O)N[C@@H](CO)C(=O)N[C@@H](CCSC)C(=O)N[C@@H](CCC(=O)O)C(=O)N[C@@H](CCCNC(=N)N)C(=O)N[C@H](C(=O)N[C@@H](CCC(=O)O)C(=O)N[C@@H](Cc1c[nH]c2ccccc12)C(=O)N[C@@H](C)C(=O)N[C@@H](CCCNC(=N)N)C(=O)N[C@@H](CCCCN)C(=O)N[C@@H](CCCCN)C(=O)N[C@@H](CC(C)C)C(=O)N[C@@H](CCC(N)=O)C(=O)N[C@@H](CC(=O)O)C(=O)N[C@H](C(=O)N[C@@H](Cc1cnc[nH]1)C(=O)N[C@@H](CC(N)=O)C(=O)N[C@@H](Cc1ccccc1)C(N)=O)C(C)C)C(C)C", "Activity": "Non-Toxic"}, {"smiles": "CC[C@H](C)[C@H](NC(=O)[C@H](CCC(=O)O)NC(=O)[C@H](CO)NC(=O)[C@@H](NC(=O)[C@H](CO)NC(C)=O)C(C)C)C(=O)N[C@@H](CCC(N)=O)C(=O)N[C@@H](CC(C)C)C(=O)N[C@@H](CCSC)C(=O)N[C@@H](Cc1cnc[nH]1)C(=O)N[C@@H](CC(N)=O)C(=O)N[C@@H](CC(C)C)C(=O)NCC(=O)N[C@@H](CCCCN)C(=O)N[C@@H](Cc1cnc[nH]1)C(=O)N[C@@H](CC(C)C)C(=O)N[C@@H](CC(N)=O)C(=O)N[C@@H](CO)C(=O)N[C@@H](CCSC)C(=O)N[C@@H](CCC(=O)O)C(=O)N[C@@H](CCCNC(=N)N)C(=O)N[C@H](C(=O)N[C@@H](CCC(=O)O)C(=O)N[C@@H](Cc1c[nH]c2ccccc12)C(=O)N[C@@H](CC(C)C)C(=O)N[C@@H](CCCNC(=N)N)C(=O)N[C@@H](CCCCN)C(=O)N[C@@H](CCCCN)C(=O)N[C@@H](C)C(=O)N[C@@H](CCC(N)=O)C(=O)N[C@@H](CC(=O)O)C(=O)N[C@H](C(=O)N[C@@H](Cc1cnc[nH]1)C(=O)N[C@@H](CC(N)=O)C(=O)N[C@@H](Cc1ccccc1)C(N)=O)C(C)C)C(C)C", "Activity": "Non-Toxic"}, {"smiles": "CC[C@H](C)[C@H](NC(=O)[C@H](CCC(=O)O)NC(=O)[C@H](CO)NC(=O)[C@@H](NC(=O)[C@H](CO)NC(C)=O)C(C)C)C(=O)N[C@@H](CCC(N)=O)C(=O)N[C@@H](CC(C)C)C(=O)N[C@@H](CCSC)C(=O)N[C@@H](Cc1cnc[nH]1)C(=O)N[C@@H](CC(N)=O)C(=O)N[C@@H](CC(C)C)C(=O)NCC(=O)N[C@@H](CCCCN)C(=O)N[C@@H](Cc1cnc[nH]1)C(=O)N[C@@H](CC(C)C)C(=O)N[C@@H](CC(N)=O)C(=O)N[C@@H](CO)C(=O)N[C@@H](CCSC)C(=O)N[C@@H](CCC(=O)O)C(=O)N[C@@H](CCCNC(=N)N)C(=O)N[C@H](C(=O)N[C@@H](CCC(=O)O)C(=O)N[C@@H](Cc1c[nH]c2ccccc12)C(=O)N[C@@H](CC(C)C)C(=O)N[C@@H](CCCNC(=N)N)C(=O)N[C@@H](CCCCN)C(=O)N[C@@H](CCCCN)C(=O)N[C@@H](CC(C)C)C(=O)N[C@@H](CCC(N)=O)C(=O)N[C@@H](CC(=O)O)C(=O)N[C@H](C(=O)N[C@@H](Cc1cnc[nH]1)C(=O)N[C@@H](CC(N)=O)C(=O)N[C@@H](Cc1ccccc1)C(N)=O)C(C)C)C(C)C", "Activity": "Non-Toxic"}, {"smiles": "CC[C@H](C)[C@H](NC(=O)[C@H](CCC(=O)O)NC(=O)[C@H](CO)NC(=O)[C@@H](NC(=O)[C@H](CO)NC(C)=O)C(C)C)C(=O)N[C@@H](CCC(N)=O)C(=O)N[C@@H](CC(C)C)C(=O)N[C@@H](CCSC)C(=O)N[C@@H](Cc1cnc[nH]1)C(=O)N[C@@H](CC(N)=O)C(=O)N[C@@H](CC(C)C)C(=O)NCC(=O)N[C@@H](CCCCN)C(=O)N[C@@H](Cc1cnc[nH]1)C(=O)N[C@@H](CC(C)C)C(=O)N[C@@H](CC(N)=O)C(=O)N[C@@H](CO)C(=O)N[C@@H](CCSC)C(=O)N[C@@H](CCC(=O)O)C(=O)N[C@@H](CCCNC(=N)N)C(=O)N[C@@H](C)C(=O)N[C@@H](CCC(=O)O)C(=O)N[C@@H](Cc1c[nH]c2ccccc12)C(=O)N[C@@H](CC(C)C)C(=O)N[C@@H](CCCNC(=N)N)C(=O)N[C@@H](CCCCN)C(=O)N[C@@H](CCCCN)C(=O)N[C@@H](CC(C)C)C(=O)N[C@@H](CCC(N)=O)C(=O)N[C@@H](CC(=O)O)C(=O)N[C@H](C(=O)N[C@@H](Cc1cnc[nH]1)C(=O)N[C@@H](CC(N)=O)C(=O)N[C@@H](Cc1ccccc1)C(N)=O)C(C)C", "Activity": "Non-Toxic"}]}]}
